Earlier results on 1 molecule are cited in patent US6485736B1, “Variable release microcapsules” (priority 2000, dated 2002).

The conditions of this series: water at 25° C.

`II`: the solubility was 0.335 g in 1 dm^3 of water.
